Among the data in publication PMC6934184, “Selective DNA-PKcs inhibition extends the therapeutic index of localized radiotherapy and chemotherapy” (The Journal of Clinical Investigation, 2019) are inhibition values, retold here.

For the experiment, the target named is T1, MAP3K7/MAP3K7IP1 (TAK1-TAB1) (Homo sapiens, UniProt O43318).
T1 construct: purchased Thermo Fisher Scientific (Life Technologies) SelectScreen
The experiment in a line: SelectScreen LanthaScreen. It is filed as binding. The following applies: read-out: % displacement. Put shortly:
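SelectScreen broad panel; activity (Z'LYTE, Adapta) plus binding formats. ATP: Km app for CSF1R Z'LYTE; 10 for CAMK1 Adapta. Readout = % per kinase.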

T1 sequence (O43318 1-303 limits assumed): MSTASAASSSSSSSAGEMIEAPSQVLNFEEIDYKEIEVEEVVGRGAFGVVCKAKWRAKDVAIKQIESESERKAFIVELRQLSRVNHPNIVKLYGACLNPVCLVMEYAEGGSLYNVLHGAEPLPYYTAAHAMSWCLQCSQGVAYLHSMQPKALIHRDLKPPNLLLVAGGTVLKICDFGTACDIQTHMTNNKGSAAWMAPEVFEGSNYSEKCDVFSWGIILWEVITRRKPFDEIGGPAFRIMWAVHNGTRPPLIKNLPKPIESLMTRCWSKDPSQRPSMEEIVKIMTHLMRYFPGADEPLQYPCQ
T1 sequence (Q15750 437-504 partner limits assumed): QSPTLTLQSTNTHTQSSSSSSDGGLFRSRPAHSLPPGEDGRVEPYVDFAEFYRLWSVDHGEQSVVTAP

As to `CN(C(=O)CN1CCOCC1)c1ccc2sc3c(-c4cccc5c(=O)cc(N6CC7CCC(C6)O7)oc45)cccc3c2c1` [NU5455], the inhibition at 1 µM was -3.4%.
